Results: patent US20250034129A1, “CRYSTALLINE FORMS OF (6S,7S)-6-FLUORO-7-(2-FLUORO-5-METHYLPHENYL)-3-(TETRAHYDRO-2H-PYRAN-4-YL)-5,6,7,8-TETRAHYDROPYRIDO[2,3-d]PYRIMIDINE-2,4(1H,3H)-DIONE” (MYOKARDIA, INC., priority 2023, published 2025)

Legend:
Type in all cases: physicochemical
[1] = Stability study of Form B (thermal and humidity treatments; HPLC purity, XRPD form)
Method: The stability study of Form B (before milling) was carried out at 80° C. for two weeks and at 40° C./75% RH for one month. Purity was determined by HPLC and stability was determined by XRPD. […] The stability of milled Form B was carried out as well under the same conditions. […] A purity decrease of 0.8% was detected for milled Form B after being treated at 80° C. for […].

[2] = Competitive slurry experiments in ethanol
[3] = Slurry conversion of Form A in anhydrous ethanol; details: 60° C., 24 hours
Method: 3 g of Form A was slurried in 90 mL anhydrous ethanol at 60° C. for 24 hours.

[4] = Vapor sorption analysis (TA Instrument VTI-SA+)
Method: The vapor sorption experiments for Form B were performed using a TA Instrument VTI-SA+ Vapor Sorption Analyzer. Sample (˜10 mg) was placed in a previously cleaned and tarred platinum pan then loaded into the instrument chamber. Sample was dried at 60° C. until the loss rate of 0.005 wt %/min was obtained for 10 minutes. The sample was then held isothermally at 25° C. while the % RH of the system was stepped between 4, 5, 15, 25, 35, 45, 55, 65, 75, 85, 95, 85, 75, 65, 55, 45, 35, 25, 15, 5, 4% RH. Equilibration criteria was +/−0.01 wt % for 35 min with a maximum equilibration time of 600 min at each step.

[5] = Solid state stability in bio-relevant media; details: pH 1 HCl 0.1 M, pH 3.05 citrate 50 mM, pH 7.4 phosphate 50 mM, Fassif pH 6.5, Fessif pH 5.0, 37° C., 200 rpm
Method: Form B was added to bio-relevant media (pH 1 HCl 0.1 M; pH 3.05 citrate 50 mM; pH 7.4 phosphate 50 mM; Fassif pH 6.5; Fessif pH 5.0) and solid state stability in the media was determined. Procedures are described in more detail as follows:
pH 1 HCl 0.1M: […] HCl was diluted to 100 mL with water. pH 1.02
pH 3.05 citrate 50 mM: 82 mL of 0.1 M citric acid and 18 mL of 0.1 M sodium citrate were mixed together. pH=3.07.
pH 7.4 phosphate 50 mM: 50 mL of 0.2 M KH2PO4 and 39.1 mL of 0.2 M NaOH were dissolved and diluted to 200 mL with water. pH 7.39.
Fassif pH 6.5: 23.4 mg of NaOH, 224.7 mg of NaH2PO4·2H2O and 304.3 mg of NaCl were dissolved and diluted to 50 mL with water. 33.6 mg of SIF powder was dissolved in 15 mL of FaSSIF buffer solution. The solution was kept stirring and equilibrated at ambient condition with light protection for 2 hours. pH=6.37.
Fessif pH 5.0: 202.6 mg of NaOH, 432.7 mg of acetic acid, and 591.3 mg of NaCl were dissolved and diluted to 50 mL with water. pH of the solution was 4.99. 168 mg of SIF powder was dissolved in 15 mL of FeSSIF buffer solution. The solution was kept stirring and equilibrated at ambient condition with light protection for 2 hours. pH=4.94.
30-50 mg of Form B was weighed into 12 mL sample vials and then 3 mL of test media was added respectively. The suspensions were kept shaking at 200 rpm under 37° C. for 24 hours. […]

Cc1ccc(F)c([C@@H]2Nc3[nH]c(=O)n(C4CCOCC4)c(=O)c3C[C@@H]2F)c1 [Form B, (6S,7S)-6-fluoro-7-(2-fluoro-5-methylphenyl)-3-(tetrahydro-2H-pyran-4-yl)-5,6,7,8-tetrahydropyrido[2,3-d]pyrimidine-2,4(1H,3H)-dione]
purity by HPLC after stability test ([1]; before milling, 40° C./75% RH for one month): 99.9%
purity by HPLC after stability test ([1]; before milling, 80° C. for two weeks): 99.9%
crystal form by XRPD after stability test ([1]; before milling, 80° C. for two weeks and 40° C./75% RH for one month): remained unchanged
crystal form by XRPD after thermal and humidity treatments ([1]; milled, 40° C./75% RH and 80° C.): remains unchanged
degradation after stability test ([1]; milled, 40° C./75% RH for four weeks): did not show any degradation
purity decrease after stability test ([1]; milled, 80° C. for four weeks): 0.8%
relative stability versus Form A in competitive slurry ([2]; 10° C. and 60° C.): more stable compared to Form A
relative stability versus Form C in competitive slurry ([2]; 10° C. and 60° C.): more stable compared to Form C
relative stability versus Form E in competitive slurry ([2]; 22.5° C. and 60° C.): more stable compared to Form E
overall thermodynamic stability ranking compared to Forms A, C and E ([2]; temperature ranges covered in the experiments): thermodynamically most stable anhydrous form
thermodynamic stability compared to Form A, from conversion of Form A to Form B [3]: superior thermodynamic stability
hygroscopicity by vapor sorption analysis [4]: non-hygroscopic
weight percent gain as measured by vapor sorption analyzer ([4]; up to 95% RH, 25° C.): less than 0.05%
solid form by XRPD after 24 hours in bio-relevant media [5]: remained as Form B
